Series [1] relates to Plasmopara viticola. Briefly: Preventive grape downy mildew control, detached Emperor leaves (Example 5, Table I). It is filed as in vivo. As to conditions: sprayed before inoculation.
Series [2] concerns Plasmopara viticola. Put plainly: Eradicant grape downy mildew control, detached Emperor leaves (Example 6, Table I). It is filed as in vivo. As to conditions: 48 h, sprayed 2 days after inoculation, read-out: Eradicative Grape Downy Mildew Control, %.
The test system of series [3] is Plasmopara viticola. Briefly: Preventive grape downy mildew control, detached Cabernet Sauvignon leaves (Example 7, Table II). It is filed as in vivo.
Series [4] deals with yeasts responsible for the alcoholic fermentation of grapes. Put plainly: Fermentation test, grape juice (Example 8, Table III). The series is classed as cell-based.
Series [5] deals with Plasmopara viticola. Put plainly: Eradicant downy mildew control on grape cuttings, wettable powder (Example 10, Table V). The series is classed as in vivo. As for the experimental part:
Three-month-old single-bud Cabernet Sauvignon cuttings (cultivated in gravel) containing 6 to 10 leaves were used as hosts. The undersides of the leaves were sprayed with a sporangial suspension of Plasmopara viticola containing 510,000 conidia per milliliter of water. The inoculated cuttings were placed into a misting chamber. […] Ten to 11 days after the inoculation, the amount of disease control was determined. The percent disease control provided by the test compound was based on the percent disease reduction relative to untreated check cuttings.

The test system of series [6] is Plasmopara viticola. Briefly: Residual preventive grape downy mildew control, wettable powder (Example 11, Table VI). The series is classed as in vivo. As to conditions: 160 ppm, inoculated 3 days after treatment. As for the experimental part: Three-month-old single-bud Cabernet Sauvignon cuttings (cultivated in gravel), containing 5 to 8 leaves, were used as hosts. […] Three days after fungicide treatment, the undersides of the leaves were sprayed with a sporangial suspension of Plasmopara viticola. The inoculated cuttings were put into a misting chamber. Eight to 10 days after the inoculation, the amount of disease control was determined. The percent disease control provided by the test compound was based on the percent disease reduction relative to untreated check cuttings.

Series [7] relates to Plasmopora viticola. Put plainly: Control of foliar grape downy mildew infection by root absorption (Example 12, Table VII). It is filed as in vivo. As to conditions: 50% wettable powder, 50 ppm. The text has this: Three-month-old single-bud Cabernet Sauvignon cuttings (cultivated in gravel), containing 9 to 12 leaves, were used as hosts. […] The cuttings were then replanted in gravel and put into a misting chamber. At four different times after root treatment, the leaf undersides were sprayed with a sporangial suspension of Plasmopora viticola. The inoculated cuttings were placed into the misting chamber to stimulate disease development. Ten to 12 days after inoculation, the amount of disease control was determined. The percent disease control provided by the test compound was based on the percent disease reduction relative to untreated check cuttings.

Series [8] relates to Bremia lactucae. Put plainly: Control of lettuce downy mildew (Example 13, Table VIII). It is filed as in vivo.
The subject of series [9] is Peronospora parasitica ssp. brassicae. Briefly: Preventive control of cabbage downy mildew (Example 14, Table IX). It is filed as in vivo. Particulars: for % Control: disease reduction relative to check flat.
For series [10] the test system is unchanged. Put plainly: Curative control of cabbage downy mildew (Example 14, Table IX). The series is classed as in vivo. Particulars: for % Control: disease reduction relative to check flat.
In series [11] the test system is Pseudoperonospora cubensis. Briefly: Foliar spray control of cucumber downy mildew (Example 15, Table X). The series is classed as in vivo.
Series [12] has as its system Phytophthora cryptogea. Briefly: Snapdragon crown and root rot control, soil drench (Example 16, Table XI). The series is classed as in vivo.
The test system of series [13] is Phytophthora cryptogea. Put plainly: Snapdragon crown and root rot control, foliar spray (Example 16, Table XI). The series is classed as in vivo.
Series [14] has as its system Phytophthora cryptogea. Briefly: Safflower crown and root rot control by foliar spray (Example 17, Table XII). The series is classed as in vivo.
For series [15], the system named is Phytophthora cryptogea. Briefly: Safflower crown and root rot control by soil drench, P. cryptogea (Example 18, Table XIII). The series is classed as in vivo.
In series [16] the test system is P. parasitica. Briefly: Safflower crown and root rot control by soil drench, P. parasitica (Example 18, Table XIII). It is filed as in vivo.
For series [17], the system named is P. cryptogea. Briefly: Tobacco crown and root rot control by soil drench, P. cryptogea (Example 19, Table XIV). The series is classed as in vivo.
Series [18] relates to Phytophthora parasitica. Put plainly: Tobacco crown and root rot control by soil drench, P. parasitica (Example 19, Table XIV). It is filed as in vivo.
Series [19] relates to Phytophthora capsici. Put plainly: Control of Phytophthora rot in sweet peppers (Example 20, Table XV). The series is classed as in vivo. As to conditions: 50% wettable powder. The method, then: The pots were then inoculated with the organism by spreading a bed of oats grain (contaminated with the Phytophthora capsici organism) on the soil surface and covering the bed with a 1-cm depth of sterilized soil. The sweet pepper seedlings were then sprayed to runoff with an aqueous suspension of the test compound at various test concentrations (12 pots per concentration level). The amount of disease control was determined by counting the number of dead plants. The percent disease control provided by the test compound was based on the percent disease reduction relative to untreated check seedlings.

Series [20] can be described thus: Oral LD50 (rats). As to conditions: rat, in vivo.
Series [21] in a line: Dermal LD50 (rats). As to conditions: rat, in vivo, topical or ocular.
The test system of series [22] is Plasmopara viticola. Briefly: Eradicant downy mildew control on Emperor and Carignane grape leaves (Example 9, Table IV). It is filed as in vivo.
Setting [23] is: 61.5 ppm, treated 3 days after inoculation.
Where [24] appears, read: 62.5 ppm, treated 1 day after inoculation.
[25] abbreviates: 62.5 ppm, treated 2 days after inoculation.
The mark [26] stands for this setting: inoculated 1 day after root treatment.
The mark [27] stands for this setting: inoculated 5 days after root treatment.
The mark [28] stands for this setting: Carignane leaves, treated 3 days after inoculation.
Where [29] appears, read: Emperor leaves, treated 1 day after inoculation.
Setting [30] is: Emperor leaves, treated 2 days after inoculation.

The term LD50 denotes the dose expected to kill half of the subjects tested. A higher LD50 goes with lower toxicity.

Like-named read-outs stand apart in the source and are kept apart here.

Turning to `COC(=O)C(C)N(C(=O)CCl)c1c(C)cccc1C` (stereo not drawn) [Compound 27, reference compound], the values for the pest or weed control at 100 ppm in series [1] (100 ppm) and in series [2] were 78% and 96%, respectively.
`Cc1cccc(C)c1N(C(=O)CCl)C1CCOC1=O` (stereo not drawn) [Compound A, 3-(N-chloroacetyl-N-2,6-dimethylphenylamino)-gamma-butyrolactone]: the results for the pest or weed control at 6.4 ppm in series [1] (6.4 ppm) and in series [2] (6.4 ppm) were 97% and 99%, respectively. Also, in [2], the pest or weed control at 100 ppm was determined as 99%. In addition, the “Percent Control” value in [3] (6.4 ppm), in series [3] (16 ppm) and in [3] (40 ppm) was 100% throughout. Moreover, the “Cumulative loss of weight due to CO2 escape” value (“Cumulative loss of weight due” below) was determined as 0.9 grams in [4] (1 ppm, after 1 day); 5.0 grams in [4] (1 ppm, after 2 days); 10.5 grams in [4] (1 ppm, after 3 days); 11.3 grams in series [4] (1 ppm, after 4 days); 14.2 grams in series [4] (1 ppm, after 7 days); 14.5 grams in series [4] (1 ppm, after 8 days). Also, the “Cumulative loss of weight due” value in series [4] (2 ppm, after 1 day) stood at 0.8 grams; in series [4] (2 ppm, after 2 days), 5.2 grams; in series [4] (2 ppm, after 3 days) it was 10.4 grams; in series [4] (2 ppm, after 4 days), 11.1 grams; in series [4] (2 ppm, after 7 days), 13.4 grams; in series [4] (2 ppm, after 8 days), 13.7 grams. Further, the “Cumulative loss of weight due” value in [4] (4 ppm, after 1 day) was 1.0 grams; in [4] (4 ppm, after 2 days) it was 5.2 grams; in [4] (4 ppm, after 3 days), 10.4 grams; in series [4] (4 ppm, after 4 days) it was 11.1 grams; in [4] (4 ppm, after 7 days), 13.1 grams; in series [4] (4 ppm, after 8 days) it was 13.3 grams. Moreover, the “Cumulative loss of weight due” value in series [4] (8 ppm, after 1 day) is given as 1.0 grams; in series [4] (8 ppm, after 2 days), 5.4 grams; in [4] (8 ppm, after 3 days), 11.0 grams; in series [4] (8 ppm, after 4 days), 11.8 grams; in series [4] (8 ppm, after 7 days), 14.5 grams; in series [4] (8 ppm, after 8 days) it was 15.2 grams. In addition, the “% Disease Control” value in series [5] (setting [23]) was 84.7%; in series [5] (62.5 ppm) it was 91.6%; in series [5] (setting [24]), 97.6%; in series [5] (setting [25]) it was 96.2%; in [6], 99.8%; in series [7] (setting [26]), 33.5%. The “% Disease Control” value in series [7] (setting [27]) was found to be 98%. The “% Leaf Surface Infected” value in [5] (setting [23]) worked out at 4.15%; in [5] (setting [24]), 0.51%; in series [5] (setting [25]) it was 0.55%; in [5] (62.5 ppm, treated 5 days after inoculation) it was 2.5%; in series [6] it was 0.03%; in [7] (setting [26]), 6.26%. In addition, in [7] (setting [27]), the “% Leaf Surface Infected” value came to 0.32%. Further, the “% Control” value in [8] (25 g active/hl) is recorded as 75.8%; in series [8] (50 g active/hl) it was 90.6%; in series [8] (100 g active/hl), 95.5%; in series [9] (20 g a.i./hl) it was 98.2%; in series [9] (40 g a.i./hl) it was 97.7%; in series [9] (80 g a.i./hl), 98.5%. The “% Control” value is listed as 98.2% in series [10] (20 g a.i./hl); 99.0% in series [10] (40 g a.i./hl); 99.4% in series [10] (80 g a.i./hl); 63% in series [11] (16 ppm); 88% in series [11] (40 ppm); 100% in series [11] (100 ppm). Also, the “% Control” value in [12] (soil drench, 100 ppm) is given as 100%; in series [13] (foliar spray, 100 ppm), 97%; in series [14] (16 ppm), 92%; in series [14] (40 ppm), 97%; in [14] (100 ppm), 100%; in [19] (100 g/hl), 25%. Also, the “% Control” value in series [19] (200 g/hl) and in series [19] (400 g/hl) was 100% in each case. Further, the “% Dead Seedlings” value in series [8] (25 g active/hl) was found to be 5.9%; in series [8] (50 g active/hl), 1.1%; in series [8] (100 g active/hl) it was 2.3%. In addition, the “% Diseased Seedlings” value in [9] (20 g a.i./hl) is recorded as 1.8%; in [9] (40 g a.i./hl), 2.2%; in series [9] (80 g a.i./hl) it was 1.5%; in [10] (20 g a.i./hl) it was 1.8%; in series [10] (40 g a.i./hl), 1.0%; in series [10] (80 g a.i./hl) it was 0.6%. For the same compound, the “% Control, P. Cryptogea” value is on record as 92% in series [15] (16 ppm); 97% in [15] (40 ppm); 100% in series [15] (100 ppm); 96% in series [17] (16 ppm); 99.8% in series [17] (40 ppm); 100% in series [17] (100 ppm). Besides, the “% Control, P. Parasitica” value in series [16] (16 ppm) turned out to be 94%; in series [16] (40 ppm), 99%; in series [16] (100 ppm), 100%; in series [18] (16 ppm) it was 96%; in series [18] (40 ppm), 99.8%; in [18] (100 ppm), 100%. For the same compound, the results for the “% Leaf Surface Damaged” value in series [19] (100 g/hl), in series [19] (200 g/hl) and in series [19] (400 g/hl) were 0%, 1.3% and 1.63%, respectively. Also, the “% of Alive Seedlings” value in series [19] (100 g/hl) amounted to 50%; in series [19] (200 g/hl), 100%; in series [19] (400 g/hl) it was 100%. The LD50 in [20] is over 1000 mg/kg; in series [21], over 2000 mg/kg.
Turning to `O=S(=O)([O-])[O-].[Cu+2]` [Cupric sulfate], the “Eradication ED50 (ppm of applied spray for 50% control)” value in series [22] (setting [28]) is listed as 380 ppm; in series [22] (setting [29]) it was 118 ppm; in series [22] (setting [30]), 204 ppm. The “Eradication ED90 (ppm of applied spray for 90% control)” value in [22] (setting [28]) is 610 ppm; in series [22] (setting [29]) it was 289 ppm; in series [22] (setting [30]), 445 ppm.
For the compound `O=C1c2ccccc2C(=O)N1SC(Cl)(Cl)Cl` [Folpet, N-(trichloromethylthio)phthalimide, reference compound], the “Percent Control” value in [3] (6.4 ppm) worked out at 80.1%; in series [3] (16 ppm), 98.8%; in [3] (40 ppm), 97.7%.
For `COC(=O)C(C)N(C(=O)CCl)c1c(C)cccc1C` (stereo not drawn) [drawing 3, reference compound], the “% Control” value in series [14] (16 ppm) was found to be 0%; in series [14] (40 ppm), 0%; in series [14] (100 ppm) it was 10%.
Take “Manganous ethylene bisdithiocarbamate [Maneb, reference compound]”: the “% Dead Seedlings” value in [8] is reported as 14.5%. Further, the “% Control” value was found to be 40.6% in series [8] (in vivo), 80% in series [11] (16 ppm), 90% in series [11] (40 ppm) and 98.3% in [11] (100 ppm).
As for “{[1,2-ethanediylbis(carbamodithioato)](2-)} manganese mixture with {[1,2-ethanediylbis(carbamodithioato)](2-)}-0 zinc [Mancozeb, reference compound]”, the “% Control” value in series [12] (in vivo) and in series [13] (in vivo) was 0% throughout.

The record behind these values is patent US4141989A, “Fungicidal 3-(N-chloroacetyl-N-arylamino)-gamma-butyrolactone compositions” (Chevron Research Company, priority 1977, dated 1979).
